Assay results: patent US10889554B2, “Excimer forming compounds” (THE GOVERNING COUNCIL OF THE UNIVERSITY OF TORONTO, priority 2013, dated 2021)

How the values were obtained:
[1] = system: proximally phosphorylated peptides; experiment: Detection of proximally phosphorylated peptides in aqueous solution (384 well plate, emission 476 nm); assay type: binding
Description: In one example 40 μM of compound 1 pre-metallated with zinc(II) triflate (referred to as “Zn^2+ pre-metallation” in FIG. 13; procedure described in example) was titrated with 80-0.04 μM of pY and pYpY peptides in 50 mM HEPES pH 7.5, 5% DMSO. In another example, 40 μM of compound 1 was dissolved in 50 mM HEPES pH 7.5, 5% DMSO, which contained 40 μM of zinc(II) triflate (referred to as “in situ Zn^2+ metallation” in FIG. 13) and was titrated with 80-0.04 μM of pY and pYpY peptides. Fluorescence measurements were performed as described in Example 2.
(§1) Various conditions for the detection of proximally phosphorylated peptides and proteins in aqueous solution are shown in Table 1. For the screens, analytes (peptides) were dissolved in a specific buffer at various concentrations (normally 100 μM to 40 nM), and combined with 40 μM of compound 1 in complex with Zn^2+ (triflate salt) dissolved in the same buffer on a 384 well flat bottom black plate. The mixture was incubated for 20 minutes and fluorescence emission intensity at 476 nm (10-20 nm bandwidth) was measured using a Tecan M1000 microplate reader, upon excitation at 350 nm (5 nm bandwidth) at 400 Hz. The different conditions tested were assessed based on the ratios of signal intensity of positive to negative control analytes and signal intensity in general.
Peptides containing two phosphotyrosine residues, spaced by 2-5 alanine residues, were titrated into 40 μM solution of compound 1 in complex with Zn^2+ (triflate salt) (pH 7.5 50 mM HEPES, 10% propylene, 25 mM NaCl) from 80 μM to 40 nM (FIG. 16). Y-axis is Δ Fluorescence Intensity as defined by the formula in example 2.
Using the same methods as described in Example 6, Zn^2+ (triflate salt) complexes of compounds 1, compound 9, compound 15, compound 14 were tested in pH 7.5, 50 mM HEPES, 25 mM NaCl, 10% propylene glycol.
Using the same methods as described in Example 6, Zn^2+ (triflate salt) complexes of compound 1 and compound 12 were tested in pH 7.5, 50 mM HEPES, 5% DMSO.

MRC-9 cells = experiment: Fixed cell imaging; assay type: cell-based, human
Description: MRC-9 cells were plated on an 8-chamber tissue culture treated glass slide (BD Falcon; 40,000 cells/chamber) and cultured for two days at 37° C., 5% CO2. Media was removed and cells were incubated with 200 μL of 3.4% formaldehyde solution in 1×PBS for 10 min. Cells were washed 3×3 min with PBS and stored in PBS at 4° C. until staining. Cells were washed 3× with 50 mM HEPES and incubated in 40 μM solution of compound 1 in complex with Zn^2+ (triflate salt) dissolved in 50 mM HEPES, 75 mM NaCl, 10% DMSO for 1 h. Cells were rinsed 2× with 50 mM HEPES and mounted with a mounting solution and a cover slip.

[2] = system: proximally phosphorylated proteins (α-casein, β-casein and D-α-casein); experiment: In-solution detection of proteins; assay type: binding, Bos taurus; conditions: pH 7.5, 50 mM HEPES; for efficiency at detecting the proximally phosphorylated proteins: Zn^2+ (triflate salt) complexes, 75 mM NaCl, 20% DMSO
Description: Non-phosphorylated (BSA and lysozyme) and distally phosphorylated negative control proteins (ovalbumin) were used in detection methods for in-solution, on gel and on blot applications. Dephosphorylated α-casein (D-α-casein), β-casein and α-casein served as proximally phosphorylated positive controls (see Table 2). The phosphosites presented in Table 2 were obtained from the PhosphoSitePlus database or a UniProt database.
as §1, with “proteins” for “peptides”, “3. Proteins” for “1. For the screens, analytes (peptides)”, “a” for “a specific”, “general. Among the parameters assessed in this study and using these specific control proteins, the following conditions were selected for proteins studies: pH 5.5 50 mM NaOAc, 50 mM NaCl, 5% DMSO (see FIG. 27). […] Depending on the number of proximally di-phosphorylated sites, lower detection limits could be achieved by using lower concentration of a sensor.” for “general.”
Using same methods as described in Example 1.1c, Zn^2+ (triflate salt) complexes of compounds 1 (top left), compound 9 (top right), compound 15 (middle left), and compound 14 (middle right) were tested in pH 7.5, 50 mM HEPES, 75 mM NaCl, 20% DMSO (see FIG. 28).
Using same methods as described in Example 14, 40 and 20 μM of Zn^2+ (triflate salt) complexes of compound 1 (top) and compound 12 (bottom) (FIG. 29), were tested in pH 7.5, 50 mM HEPES, 5% DMSO.
Using same methods as described above, 60, 40, 20 and 10 μM of Zn^2+ (triflate salt) complexed with compound 12 (FIG. 30), were titrated with 80-0.04 μM of proteins in pH 7.5, 50 mM HEPES, 5% DMSO.

β-casein = biological target: T1, β-casein (Bos taurus, UniProt P02666); experiment: On-gel detection of proximally phosphorylated protein using GaCl3 complexes; assay type: binding
T1 construct: purchased Sigma Aldrich C6905-250MG
T1 sequence (P02666 16-224): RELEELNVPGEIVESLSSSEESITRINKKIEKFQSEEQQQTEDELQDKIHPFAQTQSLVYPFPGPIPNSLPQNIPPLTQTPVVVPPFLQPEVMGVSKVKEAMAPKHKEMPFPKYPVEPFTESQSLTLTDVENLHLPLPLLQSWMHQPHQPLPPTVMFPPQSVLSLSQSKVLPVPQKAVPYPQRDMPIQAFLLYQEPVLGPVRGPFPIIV
Description: (§2) Compound 8 was dissolved in 50 mM NaOAc buffer, pH 4.5, 50 mM NaCl, 10% DMSO and combined with 80, 160 or and 240 μM GaCl3 solutions. Each gel contained 4 lanes with equal amounts of BSA, ovalbumin (Ova), β-casein (β-cas) and lysozyme (Lyso) in each lane (left to right: 1, 0.5, 0.25 and 0.125 μg per protein per lane) (see FIG. 37). Gels were stained for 1 h with the sensor solution. Gels were first de-stained with 50 mM NaOAc buffer pH 4.5 for 2 h and then with 50 mM NaOAc buffer pH 4.0 20% acetonitrile for 40 h.
(§3) Compound 8 was dissolved in 100 mM NaOAc buffer, pH 4.5, 150 mM NaCl, 20% propylene glycol and combined with 10 and 15 μM GaCl3 solutions. Each gel contained 4 lanes with equal amounts of BSA, ovalbumin (Ova), β-casein (β-cas) and lysozyme (Lyso) in each lane (FIG. 40) left to right: 1, 0.5, 0.25 and 0.125 μg per protein per lane). Gels were stained for 1.5 h with the sensor solution. Destaining was performed for variable time (specified at the top) with 50 mM NaOAc, pH 4.0, 20% acetonitrile. Gels were rinsed with MiliQ water for 5 min prior to imaging. Images were acquired using ChemiDoc MP, using a 530 nm emission filter and UV trans excitation.
as §2, with “Compound 2” for “Compound 8”, “lane) (FIG. 42).” for “lane) (see FIG. 37).”, “h. […] However with the increased destaining time the intensity of β-casein band relative to other proteins was increasing, resulting in a 6.7-fold higher intensity over the distally phosphorylated protein ovalbumin. Lane containing 1 μg of each protein was analyzed (FIG. 43).” for “h.”
as §3, with “2” for “8”, “45)” for “40)”, “acetonitrile (see FIGS. 45 and 46).” for “acetonitrile.”

[3] = Titration of compound with GaCl3 at different pH (fluorescence at 376 nm); assay type: binding; conditions: 40 μM compound
Description: GaCl3 was titrated into 40 μM (constant) of compound 2 from 500 to 0.25 μM at pH 4.5 (50 mM NaOAc) and 7.5 (HEPES). Fluorescence intensity was measured at 376 and 476 nm at 350 nm excitation. […] At pH 4.5 saturation is observed at 10 μM of GaCl3.
40 μM of compound 3 was titrated with GaCl3 (250-0.12 μM) and the change in emission at 376 nm was recorded upon excitation at 350 nm as shown in FIG. 48.

[4] = system: MRC-9 and A549 cell lines; experiment: Fixed cell imaging: monitoring increase in proximal phosphorylation; assay type: cell-based, human; conditions: pre-treatment before fixation
[5] = 100 mM NaOAc pH 4.5, 150 mM NaCl, 20% propylene glycol, destain 50 mM NaOAc, pH 4.0, 20% acetonitrile

## c1cc2ccc3ccc(CN4CCNCCNCCNCC4)c4ccc(c1)c2c34 [compound 1, 1-(Pyren-1-methyl)-1,4,7,10-tetraazacyclododecane]
[1]; Zn^2+ triflate complex, 40 μM
  signal with mono-phosphorylated or non-phosphorylated peptides: did not produce a significant signal
MRC-9 cells
  intracellular fluorescence, metallated vs non-metallated: only compound 1-Zn^2+ complex, is capable of inducing intracellular fluorescence
[2]
  efficiency at detecting the proximally phosphorylated proteins: comparable efficiency

## O=C(O)CN(CC(=O)O)c1ccccc1OCCOc1cc(NC(=O)CCCc2ccc3ccc4cccc5ccc2c3c45)ccc1N(CC(=O)O)CC(=O)O [compound 2, 2,2′-((2-(2-(2-(bis(carboxymethyl)amino)-5-(4-(pyren-1-yl)butanamido)phenoxy)ethoxy)phenyl)azanediyl)diacetic acid]
β-casein; 80 μM compound, 1:1 GaCl3, stained 1 h
  selectivity for β-casein after 2 h destaining: did not result in the selective staining
β-casein; 80 μM compound, 1:1 GaCl3, stained 1 h, 40 h destaining, 1 μg per protein
  β-casein over distally phosphorylated ovalbumin: 6.7 fold
β-casein; 50 mM NaOAc pH 4.5, 50 mM NaCl, 10% DMSO, 160 or 240 μM GaCl3
  selectivity for β-casein with more than 1:1 equivalent of compound:GaCl3: did not result in good selectivity
β-casein; 100 mM NaOAc pH 4.5, 150 mM NaCl, 20% propylene glycol, 1:1 and 1:1.5 compound:GaCl3, stained 1.5 h
  selective staining for β-casein, no destaining: did not result in selective staining
β-casein; [5]
  staining of β-casein band following 16 h destain: most prominently stained band
  β-casein signal over distally phosphorylated ovalbumin following 16 h destain: 10 fold
[3]; pH 4.5 (50 mM NaOAc)
  GaCl3 concentration at which saturation is observed: 10 µM
[3]; pH 7.5 (HEPES)
  saturation at higher concentration of GaCl3: saturation was not observed

## O=C(O)CN1CCN(CCCCc2ccc3ccc4cccc5ccc2c3c45)CCN(CC(=O)O)CCN(CC(=O)O)CC1 [compound 3, 2,2′,2″-(10-(4-(pyren-1-yl)butyl)-1,4,7,10-tetraazacyclododecane-1,4,7-triyl)triacetic acid]
[3]; pH 5.5 and 4.5, 50 mM NaOAc
  concentrations at which Ga^3+-compound complex formation was observed: single-digit

## c1cc2ccc3ccc(CCCCN4CCNCCNCCNCC4)c4ccc(c1)c2c34 [compound 9, 1-(4-(pyren-1-yl)butyl)-1,4,7,10-tetraazacyclododecane]
[1]; Zn^2+ (triflate salt) complexes, pH 7.5, 50 mM HEPES, 25 mM NaCl, 10% propylene glycol
  sensitivity for peptides in which the two phosphorylated tyrosine residues are more spaced out, vs compound 1: increased
[2]
  efficiency at detecting the proximally phosphorylated proteins: comparable efficiency

## c1cc2ccc3ccc(CN4CCCNCCNCCCNCC4)c4ccc(c1)c2c34 [compound 12, 1-(pyren-1-ylmethyl)-1,4,8,11-tetraazacyclotetradecane]
[1]; Zn^2+ (triflate salt) complex, pH 7.5, 50 mM HEPES, 5% DMSO
  detecting proximally phosphorylated peptides: potent
[2]; 60, 40, 20 and 10 μM Zn^2+ complex, 5% DMSO
  detection limit on lowering the concentration of the sensor: improved

## IL-6: a JAK2 pathway-inducing agent
[4]
  fluorescent signal from compound 1-Zn^2+ in pre-treated cells: significantly increased
